Measurements from EPA's ToxValDB 9.5 (doi:10.2903/j.efsa.2006.59r).
In brackets after ≈: the same amount, converted by molar mass.

Assays:
Tagia sp. = settings: mortality
Apis mellifera = settings: acute, mortality
Rattus norvegicus = settings: oral; for NOAEL: diet, neurology
Orius insidiosus = settings: acute, duration: 7 days
Daphnia magna = settings: chronic/long-term; duration: 21 days

COP(=S)(OC)Oc1ccc([N+](=O)[O-])c(C)c1 [Fenitrothion] gave an LC50 (Tagia sp.; acute) of 231 mg/kg, an NOEC (Tagia sp.; chronic/long-term) of 2.5 mg/kg and an LD50 (Apis mellifera; dermal) of 0.16 µg/piece. The LD50 (Apis mellifera; oral, unspecified) was 0.2 µg/piece, the LD50 (Rattus norvegicus; acute, mortality) was 330 mg/kg-day and the NOAEL (Rattus norvegicus; chronic, duration: 2 years) was 0.5 mg/kg-day. The NOAEL (Rattus norvegicus; subchronic, duration: 90 days) was 1.32 mg/kg-day, the LD50 (Bird; acute, oral, unspecified, mortality) was 2.3 mg/kg-day and the NOEC (Bird; reproductive) was 2.34 mg/kg. The LC50 (Bird; short-term, oral, feed, mortality) was 23 mg/kg, the LEL (Orius insidiosus; mortality) was 715 g/ha and the LEL (Orius insidiosus; reproduction) was 715 g/ha. For the same molecule, the NOEC (Daphnia magna) was 0.087 µg/L, the LC50 (Oncorhynchus mykiss; acute, duration: 96 hours, mortality) was 1.3 µg/mL (≈ 4.69 µM) and the NOEC (Oncorhynchus mykiss; chronic/long-term, duration: 96 days) was 0.088 mg/L.
